The text below walks through data of article PMC5668434, “Modulation of telomere protection by the PI3K/AKT pathway” (Nature Communications, 2017).

One series deals with Akt2. More on the design: method as in earlier work. Particulars: reported in literature; read-out: Reported data IC50 Akt 2; cited from earlier work.
A further series addresses T1, mTOR (FRAP1) (Homo sapiens, UniProt P42345).
T1 construct: purchased ThermoFisher PV4753
In words: mTOR biochemical assay (LanthaScreen). Conditions: internal data. On the technique in general: TR-FRET usually uses a lanthanide donor and a delayed reading to cut background.

For series [1], the system named is TRF1 protein in CHA 9-3 nuclear extracts. In words: Western blot of nuclear TRF1 in CHA 9-3 cells. The class given is cell-based, mouse. Conditions: 10 μM. Here is the method:
(§1) Blots were incubated with the primary antibodies anti-TRF1 1:500 (home-made monoclonal Rat, CNIO; TRF-78, ABCAM, ab10579) and with anti-SMC1 1:2000 (Bethyl Laboratories #A300-055A) as loading control. For nuclear protein preparation, the Nuclear/Cytosol Fractionation Kit (K266-100, BioVision) was used according to the manufactures protocol.

The next series deals with CHA 9-3 cells. The series can be described thus: Multitelomeric signals (MTS) by Q-FISH on metaphase spreads. The class given is cell-based, mouse. Conditions: 10 μM, 24 h. From the text:
Trf1 abrogation is known to lead to a persistent DDR at telomeres, and to induction of telomere-induced chromosomal aberrations[28]–[30]. Trf1 genetic deletion induces the so-called multitelomeric signals (MTS), a chromosomal aberration related to increased telomere fragility during DNA replication, [29]. […] To this end, we treated CHA 9-3 cells with either DMSO, the AKT inhibitor MK-2206 (AKTi) and the PI3K inhibitors ETP-47037 or ETP-47228. For detection of MTS, we performed quantitative fluorescence in situ hybridization (Q-FISH) analysis on metaphase spreads using a telomeric probe to visualize telomeres (“Methods” section). MTS are visualized by presenting a multi-dot pattern at chromosome ends in contrast to normal telomeres that show a single dot at each chromosome end.
Lung cancer-derived cell line (CHA-9-3) and immortalized P110α ^lox/lox MEFS were treated either with 10 µM of ETP-47037, ETP-47228, or AKTi (MK-2206) for 24 h. Q-FISH in metaphase spreads was performed as described above, but increasing the concentration of formamide in both the incubation and the washes to 70%.

For a further series, the system named is Akt1. More on the design: method as in earlier work. Particulars: reported in literature; read-out: Reported data IC50 Akt 1; cited from earlier work.
For another series, the target named is T2, PI3K (p110α) (Homo sapiens, UniProt P42336).
T2 construct: purchased Cama Biosciences (sic; Carna Biosciences) #07CBS-0402A
In words: PI3K alpha biochemical assay (ADP Hunter Plus). Conditions: internal data; read-out: PI3Kα IC50.

Series [2] relates to TRF1 foci in p53−/− mouse embryo fibroblasts (MEF). The series can be described thus: TRF1 foci immunofluorescence in p53−/− MEFs. The class given is cell-based. Particulars: 10 μM, 24 h. Here is the method: We then checked whether PI3Kα/AKT inhibition also leads to decreased TRF1 foci in an additional cell type to CHA-9.3 cells. Thus, we used p53 ^−/− mouse embryo fibroblasts (MEF). We treated these MEFs either with the AKT inhibitor MK-2206 or with ETP-47037 at 10 μM concentration for 24 h and analyzed TRF1 foci by immunofluorescence.
(§2) TRF1 immunofluorescence of TRF1 was performed in lung tumor-derived cell line (CHA9.3) and in MEFs[39]. A rat monoclonal antibody against mouse TRF1 developed by the Monoclonal antibody unit at CNIO was used to detect endogenous TRF1 (1:500). GFP-TRF1 fluorescence was directly measured in cells fixed in paraformaldehyde. For quantification of TRF1 foci intensity, pictures of fixed cells were automatically acquired from each well by the Opera HCS system (Perkin Elmer). Sixty images of random fields per well, with a 40× magnification lens, were taken under non-saturating conditions. At least 1 × 10^3 cells were analyzed for each well. Briefly, images were segmented using the DAPI staining to generate masks matching cell nuclei from which-TRF1 foci were analyzed.

The test system of series [3] is TRF1 mRNA in CHA 9-3 lung cancer cells. The series can be described thus: TRF1 mRNA by qPCR. The class given is cell-based, mouse. Conditions: 10 μM, 24 h.
The next series addresses T3, human AKT1 (Homo sapiens, UniProt P31749).
T3 construct: purchased ProQinase 1379-0000-2
In words: In vitro TRF1 phosphorylation by AKT1. The class given is biochemical. Particulars: MK-2206 25 μM. Here is the method: To address whether TRF1 is a direct substrate of AKT, affinity purified GST-TRF1 was incubated with purified human AKT1 (1379-0000-2, ProQinase) in the presence of γ-^32ATP. As positive control, a GSK3 (14-27) peptide (0349-0000-5, prokinase) was also used as substrate. AKT1 yielded a TRF1 phosphorylation signal after incubation with purified GST-TRF1 during 1 h, which was decreased in the presence of AKT inhibitor (see asterisk in Fig. 5a, left). AKT1 also yielded a phosphorylation signal in the positive control peptide GSK3 (14-27) that was reduced in the presence of AKT inhibitor (Fig. 5a, right). An autophospholyration activity of AKT1 was detected after 1 h of incubation and this activity was reduced in the presence of AKT inhibitor (Fig. 5a). Together, these findings indicate that TRF1 is a direct substrate of AKT1.
One μg of purified GST-TRF1 was incubated with 0.2 μg of human GST-AKT1 (1379-0000-2, ProQinase) with or without AKT inhibitor (MK-2206, 25 μM) in kinase buffer (50 mM Hepes pH 7.9, 100 μM ATP, 10 mM MgCl2, 5 mM DTT) containing 5 μCi [γ-^32-P]ATP in a total volume of 25 μl. The peptide RBER-GSK3(14-27) (0349-0000-5, ProQinase) (100 ng) was used as positive control. The reactions were performed at 30 °C for […] and stopped by addition of Lamely buffer (6×). Samples were resolved in 4–12% SDS-PAGE gels and subjected to autoradiography.

A further series relates to Akt3. Also on record: method as in earlier work. Conditions: reported in literature; read-out: Reported data IC50 Akt 3; cited from earlier work.
The subject of series [4] is TRF1 protein in p53−/− MEFs nuclear extracts. In words: Western blot of nuclear TRF1 in p53−/− MEFs. The class given is cell-based, mouse. Particulars: 10 μM. The procedure:
as §1

In series [5] the test system is TRF1 foci in CHA-9.3 mouse lung tumor cell line. In words: TRF1 foci immunofluorescence in CHA-9.3 cells. The class given is cell-based. Here is the method:
as §2

Series [6] concerns p-AKT S473 in CHA-9.3 mouse lung cancer cell line. The series can be described thus: Western blot of AKT phosphorylation at Ser473 in CHA-9.3 cells. The class given is cell-based. Particulars: 10 μM (GSK-2126458 1.0 μM), 24 h. The procedure:
These new chemical probes were prepared by replacement of a single key oxygen atom from the morpholine moiety by a methylene group, generating the piperidine derivatives ETP-51259 and ETP-50952 (Fig. 1a). To assess their PI3K cellular activity, we measured phosphorylation of residue Ser473 in AKT (p-AKT S473), a PI3K downstream target[61]–[63], by western blot analysis. To this end, we used the CHA-9.3 mouse lung cancer cell line previously generated by us[39]. […] Of note, the inhibitory activity of ETP-47037 was more prolonged than that of ETP-47228. Thus, ETP-47037 mediated p-AKT S473 inhibition was maintained during the 24-hour treatment while the ETP-47228 mediated inhibition decreased 35% after 24 h as compared to 1-h treatment but still was able to inhibit the pathway above 50% (Fig. 1c).
For detection of AKT, PRAS40 (T246) and pS6 in CHA9.3 cells, untreated control (DMSO) or treated with the indicated inhibitors, were lysed in RIPA buffer supplemented with 100 mM pefablock (Roche Diagnostics) and protease inhibitor cocktail (Roche Molecular Biochemicals). Proteins were resolved on 10% SDS-PAGE, and transferred to nitrocellulose membrane (Amersham^TM Protan^TM 0.2 µm nNC). Membranes were incubated with antibodies against phospho-AKT (Ser473), AKT, phospo-S6 (Ser 235/236), and S6Ribosomal from Cell Signaling, phospo-PRAS40 (Thr246) from BIOSURCE and anti α-tubulin form Sigma, overnight at 4 °C. After washing, blots were incubated with secondary antibody: Alexa Fluor 680 goat anti-rabbit IgG (Invitrogen) or anti-mouse IgG DyLight 800 conjugated (Thermo Scientific), and visualized using an Odyssey infrared imaging system (Li-Cor Biosciences).
In general terms: Immunoblotting shows a protein as a band on a membrane.

For another series, the system named is PI3Kα. Particulars: reported in literature; cited from earlier work.
The test system of the next series is PI3Kδ. Particulars: reported in literature; cited from earlier work.
A further series has as its system mTOR 2. Particulars: reported in literature; cited from earlier work.
Another series deals with mTOR 1. Conditions: reported in literature; cited from earlier work.
A further series relates to CHA-9.3 cell line. In words: Cytotoxicity in CHA-9.3 cells. The class given is cell-based, mouse. Conditions: 10 μM.
In a further series the test system is PI3Kγ. Conditions: reported in literature; cited from earlier work.
The test system of the next series is PI3Kβ. Particulars: reported in literature; cited from earlier work.

T3 sequence (P31749 whole entry): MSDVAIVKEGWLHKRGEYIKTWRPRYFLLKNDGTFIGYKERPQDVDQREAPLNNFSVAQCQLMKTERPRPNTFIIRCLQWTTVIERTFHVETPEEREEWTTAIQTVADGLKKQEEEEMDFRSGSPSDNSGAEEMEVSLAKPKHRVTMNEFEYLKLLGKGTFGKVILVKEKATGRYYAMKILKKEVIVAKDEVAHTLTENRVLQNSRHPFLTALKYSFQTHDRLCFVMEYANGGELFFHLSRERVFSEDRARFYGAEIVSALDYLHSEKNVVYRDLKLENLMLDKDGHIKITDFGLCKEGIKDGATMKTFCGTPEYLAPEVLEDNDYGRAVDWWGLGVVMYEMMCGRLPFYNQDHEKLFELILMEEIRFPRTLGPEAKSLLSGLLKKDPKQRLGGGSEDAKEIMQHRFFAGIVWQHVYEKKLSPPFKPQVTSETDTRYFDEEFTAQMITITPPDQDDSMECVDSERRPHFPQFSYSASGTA
T2 sequence (P42336 whole entry): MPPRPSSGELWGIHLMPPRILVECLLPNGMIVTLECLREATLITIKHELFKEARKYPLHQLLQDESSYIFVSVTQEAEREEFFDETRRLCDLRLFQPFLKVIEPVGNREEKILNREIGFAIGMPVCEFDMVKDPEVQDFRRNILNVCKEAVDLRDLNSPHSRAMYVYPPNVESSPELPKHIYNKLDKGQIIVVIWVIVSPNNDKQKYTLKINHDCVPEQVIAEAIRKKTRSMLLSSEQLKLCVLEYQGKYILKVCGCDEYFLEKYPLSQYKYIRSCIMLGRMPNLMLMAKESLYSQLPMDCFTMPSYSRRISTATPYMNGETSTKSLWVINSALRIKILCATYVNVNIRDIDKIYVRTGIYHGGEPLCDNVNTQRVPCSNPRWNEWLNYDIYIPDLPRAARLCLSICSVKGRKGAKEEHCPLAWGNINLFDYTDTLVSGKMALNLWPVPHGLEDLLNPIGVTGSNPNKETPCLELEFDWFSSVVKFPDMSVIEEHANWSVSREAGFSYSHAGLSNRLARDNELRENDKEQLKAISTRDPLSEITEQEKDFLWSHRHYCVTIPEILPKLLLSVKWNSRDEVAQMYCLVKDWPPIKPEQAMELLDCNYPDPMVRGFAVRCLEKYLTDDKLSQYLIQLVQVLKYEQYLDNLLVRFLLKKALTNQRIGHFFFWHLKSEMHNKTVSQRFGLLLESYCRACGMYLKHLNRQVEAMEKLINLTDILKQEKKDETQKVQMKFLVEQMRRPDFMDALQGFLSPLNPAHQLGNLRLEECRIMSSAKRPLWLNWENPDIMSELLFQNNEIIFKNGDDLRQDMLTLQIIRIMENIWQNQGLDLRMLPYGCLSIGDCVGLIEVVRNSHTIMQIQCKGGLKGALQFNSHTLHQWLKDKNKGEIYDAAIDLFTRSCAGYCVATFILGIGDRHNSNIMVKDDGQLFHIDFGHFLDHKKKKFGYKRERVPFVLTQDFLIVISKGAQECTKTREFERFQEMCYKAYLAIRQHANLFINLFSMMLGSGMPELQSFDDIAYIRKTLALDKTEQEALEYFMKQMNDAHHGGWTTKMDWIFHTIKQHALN
T2 sequence (P27986 whole entry partner): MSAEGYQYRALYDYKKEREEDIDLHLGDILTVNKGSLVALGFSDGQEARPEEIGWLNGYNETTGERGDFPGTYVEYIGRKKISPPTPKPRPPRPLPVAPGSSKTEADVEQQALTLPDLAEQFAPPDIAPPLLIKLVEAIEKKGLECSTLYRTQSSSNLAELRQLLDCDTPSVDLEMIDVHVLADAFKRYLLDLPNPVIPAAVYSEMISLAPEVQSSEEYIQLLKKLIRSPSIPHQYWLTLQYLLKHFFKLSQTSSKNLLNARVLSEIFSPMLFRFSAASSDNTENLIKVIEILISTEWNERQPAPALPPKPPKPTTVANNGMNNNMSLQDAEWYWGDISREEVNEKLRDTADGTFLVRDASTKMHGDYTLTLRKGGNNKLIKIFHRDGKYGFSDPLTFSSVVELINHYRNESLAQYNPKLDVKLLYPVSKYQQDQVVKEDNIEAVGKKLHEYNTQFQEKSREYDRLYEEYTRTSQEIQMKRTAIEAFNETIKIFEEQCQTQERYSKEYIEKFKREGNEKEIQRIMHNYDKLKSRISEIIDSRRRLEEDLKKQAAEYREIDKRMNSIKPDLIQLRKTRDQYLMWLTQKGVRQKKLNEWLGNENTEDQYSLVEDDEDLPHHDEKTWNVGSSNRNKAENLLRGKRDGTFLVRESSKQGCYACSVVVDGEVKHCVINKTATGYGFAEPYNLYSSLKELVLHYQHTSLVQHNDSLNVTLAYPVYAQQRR
T1 sequence (P42345 1360-2549 limits assumed): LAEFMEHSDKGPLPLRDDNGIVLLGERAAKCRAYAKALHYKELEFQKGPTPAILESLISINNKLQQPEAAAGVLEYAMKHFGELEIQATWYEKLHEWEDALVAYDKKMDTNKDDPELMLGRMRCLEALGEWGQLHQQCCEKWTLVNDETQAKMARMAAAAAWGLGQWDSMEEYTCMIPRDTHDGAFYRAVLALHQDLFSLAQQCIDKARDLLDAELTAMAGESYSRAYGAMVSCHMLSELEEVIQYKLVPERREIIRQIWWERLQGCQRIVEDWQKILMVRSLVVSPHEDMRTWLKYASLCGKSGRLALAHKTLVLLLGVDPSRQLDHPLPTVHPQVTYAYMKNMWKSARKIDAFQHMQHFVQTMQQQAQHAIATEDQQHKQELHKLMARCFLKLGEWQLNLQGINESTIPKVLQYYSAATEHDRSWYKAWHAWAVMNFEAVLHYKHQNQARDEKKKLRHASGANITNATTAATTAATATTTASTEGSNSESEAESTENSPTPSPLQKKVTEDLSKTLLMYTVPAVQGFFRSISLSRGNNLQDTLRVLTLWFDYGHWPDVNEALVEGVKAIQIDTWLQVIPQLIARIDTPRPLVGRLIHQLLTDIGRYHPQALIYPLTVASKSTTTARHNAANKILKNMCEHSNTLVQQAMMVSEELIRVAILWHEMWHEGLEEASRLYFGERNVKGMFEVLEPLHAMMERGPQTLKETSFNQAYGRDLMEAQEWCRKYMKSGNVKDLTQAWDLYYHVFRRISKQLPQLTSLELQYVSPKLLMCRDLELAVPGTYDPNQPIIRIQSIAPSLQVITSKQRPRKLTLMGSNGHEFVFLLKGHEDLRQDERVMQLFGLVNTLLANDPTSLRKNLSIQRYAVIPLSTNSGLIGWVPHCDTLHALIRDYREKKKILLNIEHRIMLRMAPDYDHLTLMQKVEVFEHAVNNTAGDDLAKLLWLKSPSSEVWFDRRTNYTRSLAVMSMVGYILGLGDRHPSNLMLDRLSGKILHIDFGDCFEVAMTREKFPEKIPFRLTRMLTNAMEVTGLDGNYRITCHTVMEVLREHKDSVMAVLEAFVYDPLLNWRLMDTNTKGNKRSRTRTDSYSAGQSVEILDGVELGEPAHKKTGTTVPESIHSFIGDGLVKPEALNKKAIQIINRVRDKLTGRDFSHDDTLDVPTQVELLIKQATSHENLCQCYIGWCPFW

In the case of `NC1(c2ccc(-c3nc4ccn5c(=O)[nH]nc5c4cc3-c3ccccc3)cc2)CCC1` [MK-2206, reference compound], the IC50 (in general, the concentration needed to halve the response being measured) with Akt2 was 12 nM; on mTOR (FRAP1) it was over 10000 nM; in the series on Akt1, 8 nM; on PI3K (p110α), 34.3 nM; in the series with Akt3, 65 nM. Moreover, the “TRF1 protein levels in nuclear extracts” value in series [1] is given as “significantly decreased”. Besides, the “Frequency of MTS events per metaphase compared to DMSO” value in the series with CHA 9-3 cells is “significantly increased”. The “Reduction in TRF1 foci intensity” value in [2] is 22%. In addition, the “TRF1 mRNA levels” value in series [3] was “None of the inhibitors significantly affected”. Besides, at human AKT1 (1 h), the “Autophosphorylation activity of AKT1” value is listed as “reduced”. In addition, the “Phosphorylation signal of control peptide GSK3 (14-27) by AKT1” value on human AKT1 was “reduced”. In addition, the “TRF1 phosphorylation signal by AKT1” value on human AKT1 (purified GST-TRF1, 1 h) was “decreased”. In addition, the “Total nuclear TRF1 levels compared to DMSO” value in series [4] was “decreased”. Further, in series [5] (10 μM (GSK-2126458 1.0 μM), 24 h, CHA-9.3), the “Inhibition of TRF1 foci (in words)” value is “effectively inhibited TRF1 foci”. Besides, the “TRF1 levels as compared to bortezomib/DMSO-treated control cells” value in series [5] (10 μM plus bortezomib 50 nM, CHA 9-3) was “significantly lower”. For the same compound, the “Phosphorylation of AKT (p-AKT S473) (in words)” value in [6] is recorded as “strong inhibition”.
Turning to `COc1ncc(-c2ccc3nccc(-c4ccnnc4)c3c2)cc1NS(=O)(=O)c1ccc(F)cc1F` [GSK-2126458], the IC50 was […] with PI3Kα; […] in the series on PI3Kδ; 0.3 nM in the series on mTOR 2; 0.18 nM with mTOR 1; […] with PI3Kγ; […] in the series with PI3Kβ. Further, the Cytotoxicity result in the series on CHA-9.3 cell line is listed as “high cytotoxicity”.
